# Assay results taken from the NIST ThermoML archive (doi:10.1016/j.tca.2014.07.018).
# ± gives the expanded uncertainty stated by the source.
# Test: molar heat capacity at saturation pressure
# Details: Crystal, Small (less than 1 g) adiabatic calorimetry
smiles,measurement,setting,value
C1C2CC3CC1CC(c1nnn[nH]1)(C2)C3 [5-(1-adamantyl)tetrazole],molar heat capacity,5.162 K,0.5343 ± 0.024 J/K/mol
same,molar heat capacity,5.486 K,0.6514 ± 0.026 J/K/mol
same,molar heat capacity,5.811 K,0.7886 ± 0.029 J/K/mol
same,molar heat capacity,6.141 K,0.9446 ± 0.033 J/K/mol
same,molar heat capacity,6.535 K,1.157 ± 0.037 J/K/mol
same,molar heat capacity,6.999 K,1.433 ± 0.043 J/K/mol
same,molar heat capacity,7.466 K,1.748 ± 0.05 J/K/mol
same,molar heat capacity,7.944 K,2.099 ± 0.058 J/K/mol
same,molar heat capacity,8.427 K,2.496 ± 0.067 J/K/mol
same,molar heat capacity,8.915 K,2.914 ± 0.076 J/K/mol
same,molar heat capacity,9.407 K,3.374 ± 0.086 J/K/mol
same,molar heat capacity,9.905 K,3.847 ± 0.097 J/K/mol
same,molar heat capacity,10.47 K,4.424 ± 0.078 J/K/mol
same,molar heat capacity,11.12 K,5.106 ± 0.088 J/K/mol
same,molar heat capacity,11.77 K,5.817 ± 0.097 J/K/mol
same,molar heat capacity,12.42 K,6.568 ± 0.11 J/K/mol
same,molar heat capacity,13.1 K,7.361 ± 0.12 J/K/mol
same,molar heat capacity,13.77 K,8.166 ± 0.13 J/K/mol
same,molar heat capacity,14.45 K,9.013 ± 0.14 J/K/mol
same,molar heat capacity,15.14 K,9.87 ± 0.15 J/K/mol
same,molar heat capacity,15.93 K,10.87 ± 0.16 J/K/mol
same,molar heat capacity,16.83 K,12.03 ± 0.18 J/K/mol
same,molar heat capacity,17.74 K,13.17 ± 0.19 J/K/mol
same,molar heat capacity,18.65 K,14.31 ± 0.2 J/K/mol
same,molar heat capacity,19.56 K,15.45 ± 0.21 J/K/mol
same,molar heat capacity,20.76 K,16.96 ± 0.17 J/K/mol
same,molar heat capacity,22.25 K,18.79 ± 0.18 J/K/mol
same,molar heat capacity,23.76 K,20.65 ± 0.19 J/K/mol
same,molar heat capacity,25.27 K,22.46 ± 0.19 J/K/mol
same,molar heat capacity,26.78 K,24.22 ± 0.2 J/K/mol
same,molar heat capacity,28.31 K,25.96 ± 0.2 J/K/mol
same,molar heat capacity,29.59 K,27.43 ± 0.2 J/K/mol
same,molar heat capacity,31.31 K,29.26 ± 0.21 J/K/mol
same,molar heat capacity,33.16 K,31.15 ± 0.22 J/K/mol
same,molar heat capacity,35.01 K,33.01 ± 0.23 J/K/mol
same,molar heat capacity,36.86 K,34.76 ± 0.24 J/K/mol
same,molar heat capacity,38.72 K,36.52 ± 0.25 J/K/mol
same,molar heat capacity,40.58 K,38.18 ± 0.26 J/K/mol
same,molar heat capacity,42.54 K,39.91 ± 0.27 J/K/mol
same,molar heat capacity,44.6 K,41.62 ± 0.27 J/K/mol
same,molar heat capacity,46.67 K,43.41 ± 0.28 J/K/mol
same,molar heat capacity,48.74 K,45.04 ± 0.29 J/K/mol
same,molar heat capacity,50.82 K,46.64 ± 0.3 J/K/mol
same,molar heat capacity,52.9 K,48.22 ± 0.31 J/K/mol
same,molar heat capacity,54.99 K,49.8 ± 0.32 J/K/mol
same,molar heat capacity,57.07 K,51.31 ± 0.33 J/K/mol
same,molar heat capacity,59.17 K,52.73 ± 0.33 J/K/mol
same,molar heat capacity,61.28 K,54.19 ± 0.34 J/K/mol
same,molar heat capacity,63.38 K,55.67 ± 0.35 J/K/mol
same,molar heat capacity,65.49 K,57.06 ± 0.36 J/K/mol
same,molar heat capacity,67.6 K,58.52 ± 0.36 J/K/mol
same,molar heat capacity,69.71 K,59.93 ± 0.37 J/K/mol
same,molar heat capacity,71.92 K,61.4 ± 0.38 J/K/mol
same,molar heat capacity,74.24 K,62.88 ± 0.39 J/K/mol
same,molar heat capacity,76.57 K,64.45 ± 0.39 J/K/mol
same,molar heat capacity,78.7 K,65.87 ± 0.4 J/K/mol
same,molar heat capacity,78.9 K,65.93 ± 0.4 J/K/mol
same,molar heat capacity,80.66 K,67.14 ± 0.41 J/K/mol
same,molar heat capacity,81.23 K,67.48 ± 0.41 J/K/mol
same,molar heat capacity,82.56 K,68.36 ± 0.42 J/K/mol
same,molar heat capacity,83.56 K,68.98 ± 0.42 J/K/mol
same,molar heat capacity,84.46 K,69.59 ± 0.42 J/K/mol
same,molar heat capacity,86.37 K,70.82 ± 0.43 J/K/mol
same,molar heat capacity,88.29 K,72.06 ± 0.43 J/K/mol
same,molar heat capacity,90.2 K,73.3 ± 0.46 J/K/mol
same,molar heat capacity,92.12 K,74.53 ± 0.46 J/K/mol
same,molar heat capacity,94.04 K,75.78 ± 0.47 J/K/mol
same,molar heat capacity,95.96 K,77.1 ± 0.47 J/K/mol
same,molar heat capacity,97.9 K,78.34 ± 0.48 J/K/mol
same,molar heat capacity,99.83 K,79.61 ± 0.49 J/K/mol
same,molar heat capacity,101.75 K,80.79 ± 0.49 J/K/mol
same,molar heat capacity,103.69 K,82.06 ± 0.5 J/K/mol
same,molar heat capacity,105.62 K,83.32 ± 0.5 J/K/mol
same,molar heat capacity,107.56 K,84.62 ± 0.51 J/K/mol
same,molar heat capacity,109.51 K,85.87 ± 0.52 J/K/mol
same,molar heat capacity,111.45 K,87.18 ± 0.52 J/K/mol
same,molar heat capacity,113.4 K,88.45 ± 0.53 J/K/mol
same,molar heat capacity,115.36 K,89.75 ± 0.53 J/K/mol
same,molar heat capacity,117.32 K,91.05 ± 0.54 J/K/mol
same,molar heat capacity,119.27 K,92.33 ± 0.55 J/K/mol
same,molar heat capacity,121.23 K,93.59 ± 0.55 J/K/mol
same,molar heat capacity,123.19 K,94.91 ± 0.56 J/K/mol
same,molar heat capacity,125.16 K,96.2 ± 0.56 J/K/mol
same,molar heat capacity,127.12 K,97.48 ± 0.57 J/K/mol
same,molar heat capacity,129.09 K,98.86 ± 0.58 J/K/mol
same,molar heat capacity,131.06 K,100.1 ± 0.6 J/K/mol
same,molar heat capacity,133.04 K,101.5 ± 0.6 J/K/mol
same,molar heat capacity,135.02 K,102.8 ± 0.6 J/K/mol
same,molar heat capacity,137 K,104.2 ± 0.6 J/K/mol
same,molar heat capacity,138.98 K,105.5 ± 0.6 J/K/mol
same,molar heat capacity,140.97 K,106.9 ± 0.6 J/K/mol
same,molar heat capacity,142.95 K,108.3 ± 0.6 J/K/mol
same,molar heat capacity,144.93 K,109.7 ± 0.6 J/K/mol
same,molar heat capacity,146.93 K,111.1 ± 0.6 J/K/mol
same,molar heat capacity,148.92 K,112.6 ± 0.6 J/K/mol
same,molar heat capacity,150.91 K,114 ± 0.7 J/K/mol
same,molar heat capacity,152.9 K,115.4 ± 0.7 J/K/mol
same,molar heat capacity,154.89 K,116.8 ± 0.7 J/K/mol
same,molar heat capacity,156.89 K,118.3 ± 0.7 J/K/mol
same,molar heat capacity,158.89 K,119.8 ± 0.7 J/K/mol
same,molar heat capacity,160.89 K,121.3 ± 0.7 J/K/mol
same,molar heat capacity,162.89 K,122.7 ± 0.7 J/K/mol
same,molar heat capacity,164.89 K,124.3 ± 0.7 J/K/mol
same,molar heat capacity,166.9 K,125.8 ± 0.7 J/K/mol
same,molar heat capacity,168.9 K,127.4 ± 0.7 J/K/mol
same,molar heat capacity,170.91 K,128.9 ± 0.7 J/K/mol
same,molar heat capacity,172.92 K,130.5 ± 0.7 J/K/mol
same,molar heat capacity,174.93 K,132 ± 0.7 J/K/mol
same,molar heat capacity,176.93 K,133.7 ± 0.7 J/K/mol
same,molar heat capacity,178.93 K,135.1 ± 0.8 J/K/mol
same,molar heat capacity,180.94 K,136.8 ± 0.8 J/K/mol
same,molar heat capacity,182.95 K,138.3 ± 0.8 J/K/mol
same,molar heat capacity,184.97 K,140.1 ± 0.8 J/K/mol
same,molar heat capacity,186.99 K,141.6 ± 0.8 J/K/mol
same,molar heat capacity,189 K,143.3 ± 0.8 J/K/mol
same,molar heat capacity,191.02 K,144.9 ± 0.8 J/K/mol
same,molar heat capacity,193.03 K,146.6 ± 0.8 J/K/mol
same,molar heat capacity,195.05 K,148.4 ± 0.8 J/K/mol
same,molar heat capacity,197.07 K,150.1 ± 0.8 J/K/mol
same,molar heat capacity,199.09 K,151.7 ± 0.8 J/K/mol
same,molar heat capacity,201.1 K,153.4 ± 0.8 J/K/mol
same,molar heat capacity,203.13 K,155.1 ± 0.9 J/K/mol
same,molar heat capacity,205.16 K,156.8 ± 0.9 J/K/mol
same,molar heat capacity,207.18 K,158.6 ± 0.9 J/K/mol
same,molar heat capacity,209.21 K,160.4 ± 0.9 J/K/mol
same,molar heat capacity,211.24 K,162.1 ± 0.9 J/K/mol
same,molar heat capacity,213.27 K,163.9 ± 0.9 J/K/mol
same,molar heat capacity,215.3 K,165.7 ± 0.9 J/K/mol
same,molar heat capacity,217.33 K,167.6 ± 0.9 J/K/mol
same,molar heat capacity,219.37 K,169.4 ± 0.9 J/K/mol
same,molar heat capacity,221.4 K,171.2 ± 0.9 J/K/mol
same,molar heat capacity,223.43 K,173 ± 0.9 J/K/mol
same,molar heat capacity,224.08 K,173.6 ± 0.9 J/K/mol
same,molar heat capacity,225.46 K,174.9 ± 0.9 J/K/mol
same,molar heat capacity,226.05 K,175.4 ± 0.9 J/K/mol
same,molar heat capacity,227.5 K,176.8 ± 1 J/K/mol
same,molar heat capacity,228.08 K,177.3 ± 1 J/K/mol
same,molar heat capacity,230.12 K,179.2 ± 1 J/K/mol
same,molar heat capacity,232.16 K,181.1 ± 1 J/K/mol
same,molar heat capacity,234.19 K,183.1 ± 1 J/K/mol
same,molar heat capacity,236.23 K,184.9 ± 1 J/K/mol
same,molar heat capacity,238.27 K,186.8 ± 1 J/K/mol
same,molar heat capacity,240.31 K,188.8 ± 1 J/K/mol
same,molar heat capacity,242.35 K,190.8 ± 1 J/K/mol
same,molar heat capacity,244.39 K,192.5 ± 1 J/K/mol
same,molar heat capacity,246.43 K,194.5 ± 1 J/K/mol
same,molar heat capacity,248.47 K,196.4 ± 1.1 J/K/mol
same,molar heat capacity,250.51 K,198.4 ± 1.1 J/K/mol
same,molar heat capacity,252.55 K,200.3 ± 1.1 J/K/mol
same,molar heat capacity,254.59 K,202.2 ± 1.1 J/K/mol
same,molar heat capacity,256.64 K,204.1 ± 1.1 J/K/mol
same,molar heat capacity,258.68 K,206.2 ± 1.1 J/K/mol
same,molar heat capacity,260.73 K,208 ± 1.1 J/K/mol
same,molar heat capacity,262.77 K,209.9 ± 1.1 J/K/mol
same,molar heat capacity,264.81 K,211.9 ± 1.1 J/K/mol
same,molar heat capacity,266.86 K,213.7 ± 1.1 J/K/mol
same,molar heat capacity,268.9 K,215.5 ± 1.1 J/K/mol
same,molar heat capacity,270.94 K,217.3 ± 1.2 J/K/mol
same,molar heat capacity,272.99 K,219.2 ± 1.2 J/K/mol
same,molar heat capacity,275.03 K,221 ± 1.2 J/K/mol
same,molar heat capacity,277.08 K,222.9 ± 1.2 J/K/mol
same,molar heat capacity,279.13 K,224.5 ± 1.2 J/K/mol
same,molar heat capacity,281.18 K,226.3 ± 1.2 J/K/mol
same,molar heat capacity,283.22 K,227.9 ± 1.2 J/K/mol
same,molar heat capacity,285.27 K,229.8 ± 1.2 J/K/mol
same,molar heat capacity,287.32 K,231.5 ± 1.2 J/K/mol
same,molar heat capacity,289.37 K,233.1 ± 1.2 J/K/mol
same,molar heat capacity,291.42 K,234.7 ± 1.2 J/K/mol
same,molar heat capacity,293.46 K,236.3 ± 1.2 J/K/mol
same,molar heat capacity,295.51 K,237.9 ± 1.3 J/K/mol
same,molar heat capacity,297.56 K,239.7 ± 1.3 J/K/mol
same,molar heat capacity,299.61 K,241.3 ± 1.3 J/K/mol
same,molar heat capacity,301.65 K,242.8 ± 1.3 J/K/mol
same,molar heat capacity,303.7 K,244.6 ± 1.3 J/K/mol
same,molar heat capacity,305.75 K,246 ± 1.3 J/K/mol
same,molar heat capacity,307.8 K,247.6 ± 1.3 J/K/mol
same,molar heat capacity,309.86 K,249.2 ± 1.3 J/K/mol
same,molar heat capacity,311.91 K,250.7 ± 1.3 J/K/mol
same,molar heat capacity,313.96 K,252.3 ± 1.3 J/K/mol
same,molar heat capacity,316.02 K,253.9 ± 1.3 J/K/mol
same,molar heat capacity,318.07 K,255.5 ± 1.3 J/K/mol
same,molar heat capacity,320.14 K,256.9 ± 1.3 J/K/mol
same,molar heat capacity,322.2 K,258.6 ± 1.4 J/K/mol
same,molar heat capacity,324.26 K,260.2 ± 1.4 J/K/mol
same,molar heat capacity,326.32 K,261.8 ± 1.4 J/K/mol
same,molar heat capacity,328.38 K,263.2 ± 1.4 J/K/mol
same,molar heat capacity,330.44 K,264.8 ± 1.4 J/K/mol
same,molar heat capacity,332.5 K,266.3 ± 1.4 J/K/mol
same,molar heat capacity,334.57 K,267.8 ± 1.4 J/K/mol
same,molar heat capacity,336.63 K,269.4 ± 1.4 J/K/mol
same,molar heat capacity,338.69 K,270.9 ± 1.4 J/K/mol
same,molar heat capacity,340.76 K,272.4 ± 1.4 J/K/mol
same,molar heat capacity,342.83 K,274.2 ± 1.4 J/K/mol
same,molar heat capacity,344.9 K,275.7 ± 1.4 J/K/mol
same,molar heat capacity,346.97 K,277.1 ± 1.4 J/K/mol
same,molar heat capacity,349.04 K,278.9 ± 1.5 J/K/mol
same,molar heat capacity,351.11 K,280.5 ± 1.5 J/K/mol
same,molar heat capacity,353.2 K,282.1 ± 1.5 J/K/mol
same,molar heat capacity,355.27 K,283.8 ± 1.5 J/K/mol
same,molar heat capacity,357.34 K,285.5 ± 1.5 J/K/mol
same,molar heat capacity,359.41 K,287.2 ± 1.5 J/K/mol
same,molar heat capacity,361.48 K,288.9 ± 1.5 J/K/mol
same,molar heat capacity,363.56 K,290.4 ± 1.5 J/K/mol
same,molar heat capacity,365.63 K,292 ± 1.5 J/K/mol
same,molar heat capacity,367.7 K,293.7 ± 1.5 J/K/mol
